Data set [1] has as its target Sodium-dependent serotonin transporter (Homo sapiens, UniProt P31645). Put plainly: Inhibition of human SERT expressed in CHO-K1 cells assessed as inhibition of [3H]-5-hydroxytryptamine reuptake measured after 20 mins by Microscintillation counting analysis. Format: cell-based.
Data set [2] addresses Sodium-dependent noradrenaline transporter (Homo sapiens, UniProt P23975). Put plainly: Inhibition of human NET expressed in CHO-K1 cells assessed as inhibition of [3H]-norepinephrine reuptake measured after 45 mins by Microscintillation counting analysis. Format: cell-based.
In another data set the target is MDR1 (ABCB1, P-gp) (Homo sapiens, UniProt P08183). Put plainly: Substrate activity at human MDR1 expressed in LLC-PK1 cells assessed as efflux ratio of permeability from basolateral to apical side over apical to basolateral side at 10 uM measured after 2 hrs by LC/MS/MS analysis. Format: ADME, cell-based.
A further data set has as its target CYP2D6 (Homo sapiens, UniProt P10635). Put plainly: Inhibition of CYP2D6 (unknown origin) expressed in insect cells assessed as reduction in 1'-hydroxybufuralol formation using bufuralol as substrate at 10 uM incubated for 60 mins by LC/MS/MS analysis. Format: ADME. The note with it: recombinant CYP2D6 expressed in insect cells, probe bufuralol.
A short description of data set [3]: Permeability coefficient of the compound at 10 uM at pH 7.4 measured after 3 hrs by PAMPA based LC/MS/MS analysis. Format: ADME. More on the design: unit not given here. The note with it: pH 7.4, 3 h. (In general: In PAMPA a lipid-coated filter parts donor from acceptor wells.)
Data set [4] has as its target Sodium-dependent dopamine transporter (Homo sapiens, UniProt Q01959). As to the kind of experiment: Inhibition of human DAT expressed in CHO-K1 cells assessed as inhibition of [3H]-dopamine reuptake measured after 60 mins by Microscintillation counting analysis. In kind it is cell-based.
In another data set the target is Cytochrome P450 3A4 (Homo sapiens, UniProt P08684). Put plainly: Drug metabolism assessed as CYP3A4 (unknown origin) expressed in microsomes-mediated metabolism by measuring metabolic rate at 1 uM incubated for 10 mins by UPLC analysis. In kind it is ADME, Microsome.
Data set [5] is described as follows: Oral bioavailability in Crl:CD(SD)(IGS) rat at 1 mg/kg measured after 8 hrs by LC/MS/MS analysis. Format: ADME, organism-based. The note with it: in vivo.
The target of another data set is hERG (KCNH2) (Homo sapiens, UniProt Q12809). Put plainly: Inhibition of human ERG at 10 uM.
The nature of data set [6]: Ex vivo receptor occupancy at NET in Sprague-Dawley rat left brain cortex assessed as [3H]nisoxetine labelling at 3 mg/kg, iv measured after 20 mins by scintillation counting analysis. Format: functional.
A short description of data set [7]: Drug metabolism assessed as CYP2B6/CYP2C9/CYP2E1/CYP2C8/CYP1A2 (unknown origin) expressed in microsomes-mediated metabolism by measuring metabolic rate at 1 uM incubated for 10 mins by UPLC analysis. Format: ADME, Microsome. The note with it: human.
Data set [8] concerns the target T1, Cytochrome P450 2D6 (Homo sapiens, UniProt P10635). As to the kind of experiment: Drug metabolism in human hepatocytes assessed as CYP2D6-mediated N-(((6S,7R)-7-(4-chloro-3-fluorophenyl)-1,4-oxazepan-6-yl)methyl)-2-hydroxyacetamide formation at 10 uM incubated for 6 hrs by LC/MS/MS anlaysis. In kind it is ADME, cell-based, Hepatocyte.
Data set [9] addresses T1, Cytochrome P450 2D6. As to the kind of experiment: Drug metabolism assessed as CYP2D6 (unknown origin) expressed in microsomes-mediated metabolism by measuring metabolic rate at 1 uM incubated for 10 mins by UPLC analysis. Format: ADME, Microsome.
The target of a further data set is Cytochrome P450 2C19 (Homo sapiens, UniProt P33261). As to the kind of experiment: Drug metabolism assessed as CYP2C19 (unknown origin) expressed in microsomes-mediated metabolism by measuring metabolic rate at 1 uM incubated for 10 mins by UPLC analysis. In kind it is ADME, Microsome.
In data set [10] the target is T1, Cytochrome P450 2D6. Put plainly: Drug metabolism assessed as CYP2D6 (unknown origin)-expressed in microsomes mediated N-(((6S,7R)-7-(4-chloro-3-fluorophenyl)-1,4-oxazepan-6-yl)methyl)-2-hydroxyacetamide formation at 1 uM incubated for 10 mins by UPLC anlaysis. Format: ADME, Microsome.
The test system of the next data set is Rattus norvegicus. Put plainly: Anti-SUI activity in po dosed rat assessed as induction of urethral resistance by measuring increase in leak point pressure measured after 15 to 240 mins. Format: functional, organism-based. The settings on record: dose 1-10 mg/kg, time 15-240 min, tested as the 2H-labelled form.

pIC50: −log10 of the molar value.

Cytochrome P450 3A4, sequence (P08684 whole entry): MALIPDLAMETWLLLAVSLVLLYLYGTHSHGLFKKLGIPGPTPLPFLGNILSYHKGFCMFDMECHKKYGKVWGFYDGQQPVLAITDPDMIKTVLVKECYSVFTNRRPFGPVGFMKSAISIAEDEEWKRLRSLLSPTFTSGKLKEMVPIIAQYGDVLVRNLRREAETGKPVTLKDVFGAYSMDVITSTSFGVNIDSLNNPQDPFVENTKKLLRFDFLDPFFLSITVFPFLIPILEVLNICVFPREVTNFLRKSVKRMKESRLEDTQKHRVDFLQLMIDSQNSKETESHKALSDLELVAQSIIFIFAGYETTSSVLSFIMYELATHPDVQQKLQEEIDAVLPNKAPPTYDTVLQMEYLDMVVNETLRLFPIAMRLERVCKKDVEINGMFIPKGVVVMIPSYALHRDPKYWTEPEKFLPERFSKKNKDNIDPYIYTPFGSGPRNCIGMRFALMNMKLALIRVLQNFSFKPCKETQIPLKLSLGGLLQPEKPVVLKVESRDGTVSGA
Cytochrome P450 2C19, sequence (P33261 whole entry): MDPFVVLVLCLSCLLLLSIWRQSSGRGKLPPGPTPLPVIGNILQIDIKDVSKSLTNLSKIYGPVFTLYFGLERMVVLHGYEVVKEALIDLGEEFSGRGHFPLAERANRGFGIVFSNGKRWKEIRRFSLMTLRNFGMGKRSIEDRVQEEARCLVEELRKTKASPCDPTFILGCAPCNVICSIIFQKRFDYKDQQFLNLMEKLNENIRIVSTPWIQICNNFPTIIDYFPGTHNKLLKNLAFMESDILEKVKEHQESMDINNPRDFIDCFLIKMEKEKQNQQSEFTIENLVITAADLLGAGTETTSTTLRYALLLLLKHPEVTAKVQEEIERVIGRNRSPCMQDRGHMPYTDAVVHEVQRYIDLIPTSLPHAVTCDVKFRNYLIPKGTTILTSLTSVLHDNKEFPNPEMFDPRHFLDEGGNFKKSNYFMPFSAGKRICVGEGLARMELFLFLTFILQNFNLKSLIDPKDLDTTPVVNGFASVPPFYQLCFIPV
Sodium-dependent serotonin transporter, sequence (P31645 whole entry): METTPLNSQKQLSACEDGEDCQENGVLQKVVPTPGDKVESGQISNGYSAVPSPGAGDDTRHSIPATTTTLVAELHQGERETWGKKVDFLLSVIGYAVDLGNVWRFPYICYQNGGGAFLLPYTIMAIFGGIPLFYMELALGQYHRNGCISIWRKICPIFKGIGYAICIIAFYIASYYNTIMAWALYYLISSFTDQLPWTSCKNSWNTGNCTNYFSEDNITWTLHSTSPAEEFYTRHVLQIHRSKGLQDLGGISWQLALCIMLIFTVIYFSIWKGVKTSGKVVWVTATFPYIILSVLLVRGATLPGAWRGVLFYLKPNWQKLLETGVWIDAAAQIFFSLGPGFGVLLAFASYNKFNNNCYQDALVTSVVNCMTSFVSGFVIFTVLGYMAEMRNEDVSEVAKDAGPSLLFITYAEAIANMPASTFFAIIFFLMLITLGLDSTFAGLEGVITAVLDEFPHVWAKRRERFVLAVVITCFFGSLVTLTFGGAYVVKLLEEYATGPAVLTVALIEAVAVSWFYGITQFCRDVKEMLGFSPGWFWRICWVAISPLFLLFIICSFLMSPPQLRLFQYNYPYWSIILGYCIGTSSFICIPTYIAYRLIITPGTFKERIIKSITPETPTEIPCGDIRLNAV
Sodium-dependent dopamine transporter, sequence (Q01959 whole entry): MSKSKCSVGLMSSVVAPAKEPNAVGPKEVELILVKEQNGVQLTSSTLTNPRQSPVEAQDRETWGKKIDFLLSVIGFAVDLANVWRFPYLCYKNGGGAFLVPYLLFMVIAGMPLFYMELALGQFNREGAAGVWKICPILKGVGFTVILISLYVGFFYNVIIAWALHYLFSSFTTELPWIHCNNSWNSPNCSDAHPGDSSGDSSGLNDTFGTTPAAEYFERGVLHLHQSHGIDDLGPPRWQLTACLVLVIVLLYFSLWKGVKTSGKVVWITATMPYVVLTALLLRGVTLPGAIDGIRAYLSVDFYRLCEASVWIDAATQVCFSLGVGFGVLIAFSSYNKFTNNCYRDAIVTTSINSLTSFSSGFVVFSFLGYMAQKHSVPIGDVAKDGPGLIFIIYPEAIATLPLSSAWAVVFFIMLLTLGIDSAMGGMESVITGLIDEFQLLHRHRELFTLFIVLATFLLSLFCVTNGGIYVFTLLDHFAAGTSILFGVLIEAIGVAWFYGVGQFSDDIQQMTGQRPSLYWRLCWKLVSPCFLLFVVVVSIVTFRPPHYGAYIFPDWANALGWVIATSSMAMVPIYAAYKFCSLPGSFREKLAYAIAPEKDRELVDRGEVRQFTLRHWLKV
Sodium-dependent noradrenaline transporter, sequence (P23975 whole entry): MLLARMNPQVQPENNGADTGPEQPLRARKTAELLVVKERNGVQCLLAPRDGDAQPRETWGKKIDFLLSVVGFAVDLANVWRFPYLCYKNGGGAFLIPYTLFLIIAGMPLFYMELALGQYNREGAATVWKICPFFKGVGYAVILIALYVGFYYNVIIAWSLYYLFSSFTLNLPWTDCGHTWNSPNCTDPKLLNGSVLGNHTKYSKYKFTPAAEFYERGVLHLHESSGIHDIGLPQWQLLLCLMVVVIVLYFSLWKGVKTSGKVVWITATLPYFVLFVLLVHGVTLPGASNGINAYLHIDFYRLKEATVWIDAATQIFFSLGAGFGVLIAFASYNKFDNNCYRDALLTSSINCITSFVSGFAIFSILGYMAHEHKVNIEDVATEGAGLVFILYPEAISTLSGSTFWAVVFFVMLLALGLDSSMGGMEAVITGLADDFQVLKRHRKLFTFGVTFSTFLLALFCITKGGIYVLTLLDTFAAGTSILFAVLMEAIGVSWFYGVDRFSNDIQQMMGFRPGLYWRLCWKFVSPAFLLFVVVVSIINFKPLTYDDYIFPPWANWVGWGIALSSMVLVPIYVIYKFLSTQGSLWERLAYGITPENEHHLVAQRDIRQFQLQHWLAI
CYP2D6, sequence (P10635 whole entry): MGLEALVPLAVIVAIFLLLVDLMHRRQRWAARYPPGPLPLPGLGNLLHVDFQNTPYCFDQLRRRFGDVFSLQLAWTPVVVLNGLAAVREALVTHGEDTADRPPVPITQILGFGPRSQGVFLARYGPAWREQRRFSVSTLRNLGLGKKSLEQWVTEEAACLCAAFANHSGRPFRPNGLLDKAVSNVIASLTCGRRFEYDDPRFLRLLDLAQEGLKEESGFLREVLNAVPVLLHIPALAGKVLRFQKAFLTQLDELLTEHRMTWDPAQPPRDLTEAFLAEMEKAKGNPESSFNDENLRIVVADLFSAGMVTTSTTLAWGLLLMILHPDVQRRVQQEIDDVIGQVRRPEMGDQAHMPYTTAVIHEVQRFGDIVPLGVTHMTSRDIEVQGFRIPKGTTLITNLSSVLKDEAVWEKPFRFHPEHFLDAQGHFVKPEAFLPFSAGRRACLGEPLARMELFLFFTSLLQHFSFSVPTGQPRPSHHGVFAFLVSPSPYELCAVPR
T1 sequence (P10635 whole entry): as above
MDR1 (ABCB1, P-gp), sequence (P08183 whole entry): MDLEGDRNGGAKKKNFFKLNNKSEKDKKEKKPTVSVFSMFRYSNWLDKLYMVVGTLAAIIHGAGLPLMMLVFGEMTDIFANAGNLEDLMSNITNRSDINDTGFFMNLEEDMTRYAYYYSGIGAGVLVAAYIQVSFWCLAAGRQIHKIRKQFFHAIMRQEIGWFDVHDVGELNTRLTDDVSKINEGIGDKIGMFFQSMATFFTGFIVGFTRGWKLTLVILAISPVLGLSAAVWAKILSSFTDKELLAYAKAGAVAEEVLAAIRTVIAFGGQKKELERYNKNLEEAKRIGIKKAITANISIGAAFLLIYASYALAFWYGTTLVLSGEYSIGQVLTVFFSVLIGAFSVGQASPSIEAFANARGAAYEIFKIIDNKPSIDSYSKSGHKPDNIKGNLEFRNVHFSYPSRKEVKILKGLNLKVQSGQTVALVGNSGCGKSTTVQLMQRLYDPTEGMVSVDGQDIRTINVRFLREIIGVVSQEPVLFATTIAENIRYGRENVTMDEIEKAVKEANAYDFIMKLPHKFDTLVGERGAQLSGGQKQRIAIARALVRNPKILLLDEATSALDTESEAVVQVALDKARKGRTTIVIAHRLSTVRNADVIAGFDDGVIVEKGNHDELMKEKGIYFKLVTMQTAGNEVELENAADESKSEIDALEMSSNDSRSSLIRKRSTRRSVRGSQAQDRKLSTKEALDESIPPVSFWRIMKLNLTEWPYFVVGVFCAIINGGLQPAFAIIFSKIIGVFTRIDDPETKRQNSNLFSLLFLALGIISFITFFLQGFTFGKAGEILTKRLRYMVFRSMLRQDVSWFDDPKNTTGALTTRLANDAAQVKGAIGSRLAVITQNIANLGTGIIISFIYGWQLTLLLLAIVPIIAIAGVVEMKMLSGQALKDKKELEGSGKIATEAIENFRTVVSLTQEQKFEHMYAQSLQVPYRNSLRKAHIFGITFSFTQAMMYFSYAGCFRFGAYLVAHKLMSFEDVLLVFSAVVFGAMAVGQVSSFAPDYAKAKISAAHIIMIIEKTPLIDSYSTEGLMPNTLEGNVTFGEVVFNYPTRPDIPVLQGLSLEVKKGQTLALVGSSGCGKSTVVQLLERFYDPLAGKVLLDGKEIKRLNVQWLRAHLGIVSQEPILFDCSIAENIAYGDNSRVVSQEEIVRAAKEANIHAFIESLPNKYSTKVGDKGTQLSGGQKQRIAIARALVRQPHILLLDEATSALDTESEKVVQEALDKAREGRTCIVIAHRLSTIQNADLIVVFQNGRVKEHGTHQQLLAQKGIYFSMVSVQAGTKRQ

Broadly, the pIC50 is the negative decadic logarithm of the IC50, by convention in mol/L. One may read the efflux ratio as a quotient of directional permeabilities that is used to spot active efflux. As a reminder, the inhibition is the percentage by which the read-out fell short of the control. Take `COCCC(=O)NC[C@@H]1CNCCO[C@H]1c1ccc(Cl)c(F)c1.Cl`: the pIC50 in data set [1] is 6.05; in data set [2] it was 8.41; in data set [4], less than 6.00. On MDR1 (ABCB1, P-gp), the efflux ratio at 2 h, 10 µM came to 12. Moreover, on CYP2D6, the inhibition at 1 h, 10 µM turned out to be 44%. In data set [3], this compound registered a Pe of 151.

A word on the bioavailability: it is the share of a dose that reaches the circulation, judged against a reference dose that is usually intravenous. As to `Cl.[2H]C([2H])([2H])OCC(=O)NC[C@@H]1CNCCO[C@H]1c1ccc(Cl)c(F)c1`, the negative-log IC50 (pIC50) in [1] was 6.17; in data set [2], 8.48; in data set [4] it was less than 6.00. The Drug metabolism at Cytochrome P450 3A4 was 0.015 %/min/pmol; in data set [7] it was 0.008 %/min/pmol; on Cytochrome P450 2D6 [8], “Metabolite_Detected”; at Cytochrome P450 2D6 [9], 0.035 %/min/pmol; on Cytochrome P450 2C19 it was 0.012 %/min/pmol. Besides, the bioavailability in data set [5] was determined as 68%. Besides, on hERG (KCNH2), the inhibition at 10 µM came out at 17%. Moreover, the Occ in [6] turned out to be 3.8%. Moreover, the efflux ratio at 2 h, 10 µM at MDR1 (ABCB1, P-gp) amounted to 2.1. Moreover, the inhibition at 1 h, 10 µM on CYP2D6 amounted to 49%.

As to `CC(C)OCC(=O)NC[C@@H]1CNCCO[C@H]1c1ccc(Cl)c(F)c1.Cl`, the pIC50 in data set [1] was 6.41; in [2], 8.32; in [4] it was less than 6.00. Also, the Drug metabolism at Cytochrome P450 3A4 was determined as 0.064 %/min/pmol; in data set [7] it was 0 %/min/pmol; at Cytochrome P450 2D6 [9], 0.37 %/min/pmol; on Cytochrome P450 2C19 it was 0.017 %/min/pmol. Also, the efflux ratio at 2 h, 10 µM on MDR1 (ABCB1, P-gp) was 1.7. Also, at CYP2D6, the inhibition at 1 h, 10 µM stood at 66%.

Regarding `Cl.O=C(NC[C@@H]1CNCCO[C@H]1c1ccc(Cl)c(F)c1)C1CCCO1` (some centres not stated), the negative logarithm of the IC50 (pIC50) was 6.70 in data set [1], 8.28 in data set [2] and less than 6.00 in data set [4]. Moreover, the efflux ratio at 2 h, 10 µM on MDR1 (ABCB1, P-gp) came to 3.5. The inhibition at 1 h, 10 µM at CYP2D6 worked out at 80%.

Turning to `COCC(=O)NC[C@@H]1CNCCO[C@H]1c1ccc(Cl)c(F)c1.Cl`, the negative-log IC50 (pIC50) is 6.36 in data set [1], 8.49 in data set [2] and less than 6.00 in data set [4]. Also, the Drug metabolism is recorded as 0 %/min/pmol at Cytochrome P450 3A4; “Metabolite_Detected” at Cytochrome P450 2D6 [10]; 0 %/min/pmol in [7]; “Metabolite_Detected” on Cytochrome P450 2D6 [8]; 0.081 %/min/pmol at Cytochrome P450 2D6 [9]; 0.016 %/min/pmol at Cytochrome P450 2C19. Besides, on MDR1 (ABCB1, P-gp), the efflux ratio at 2 h, 10 µM was 2.1. At CYP2D6, the inhibition at 1 h, 10 µM was 48%. For the same compound, the Activity entry in the data set on Rattus norvegicus is “Dose-dependent effect”. The compound further had a Pe in [3] of 221.

For `COC(C)(C)C(=O)NC[C@@H]1CNCCO[C@H]1c1ccc(Cl)c(F)c1.Cl`, the negative-log IC50 (pIC50) is 6.28 in data set [1], 7.68 in data set [2] and less than 6.00 in data set [4]. In addition, the efflux ratio at 2 h, 10 µM at MDR1 (ABCB1, P-gp) is 2.4. Further, at CYP2D6, the inhibition at 1 h, 10 µM worked out at 42%.

As to `CCOCC(=O)NC[C@@H]1CNCCO[C@H]1c1ccc(Cl)c(F)c1.Cl`, the pIC50 in data set [1] is 6.66; in [2], 8.48; in [4] it was less than 6.00. The Drug metabolism on Cytochrome P450 3A4 was 0.026 %/min/pmol; in data set [7], 0 %/min/pmol; on Cytochrome P450 2D6 [9], 0.365 %/min/pmol; on Cytochrome P450 2C19 it was 0.005 %/min/pmol. For the same compound, the efflux ratio at 2 h, 10 µM on MDR1 (ABCB1, P-gp) is 1.4. Also, the inhibition at 1 h, 10 µM at CYP2D6 stood at 79%.

Take `Cl.O=C(NC[C@@H]1CNCCO[C@H]1c1ccc(Cl)c(F)c1)C1COCCO1` (some centres not stated): the pIC50 in data set [1] is 6.27; in data set [2], 8.59; in data set [4], less than 6.00. Also, the efflux ratio at 2 h, 10 µM on MDR1 (ABCB1, P-gp) was found to be 3.6. Further, at CYP2D6, the inhibition at 1 h, 10 µM was determined as 66%.

Take `CCCC(=O)NC[C@@H]1CNCCO[C@H]1c1ccc(Cl)c(Cl)c1.Cl`: the values for the pIC50 in data set [1], in data set [2] and in data set [4] were 7.21, 8.59 and less than 6.00, respectively. Further, the efflux ratio at 2 h, 10 µM at MDR1 (ABCB1, P-gp) was 3. Besides, on CYP2D6, the inhibition at 1 h, 10 µM worked out at 62%. The compound further displayed a Pe in data set [3] of 260.

For `COC(C)C(=O)NC[C@@H]1CNCCO[C@H]1c1ccc(Cl)c(F)c1.Cl` (some centres not stated), the pIC50 in data set [1] is 6.10; in data set [2], 8.06; in data set [4] it was less than 6.00. For the same compound, the efflux ratio at 2 h, 10 µM on MDR1 (ABCB1, P-gp) stood at 1.9. The inhibition at 1 h, 10 µM at CYP2D6 came out at 33%.

For the compound `COCC(=O)NC[C@@H]1CNCCO[C@H]1c1ccc(Cl)c(Cl)c1.Cl`, the negative logarithm of the IC50 (pIC50) in [1] is 7.15; in data set [2] it was 8.92; in data set [4] it was 5.80. Also, the efflux ratio at 2 h, 10 µM on MDR1 (ABCB1, P-gp) stood at 2.1. Moreover, on CYP2D6, the inhibition at 1 h, 10 µM was 70%. The Pe in data set [3] turned out to be 279.

For the compound `CCC(=O)NC[C@@H]1CNCCO[C@H]1c1ccc(Cl)c(Cl)c1.Cl`, the pIC50 in [1] was 6.92; in data set [2], 8.82; in data set [4], less than 6.00. Moreover, on MDR1 (ABCB1, P-gp), the efflux ratio at 2 h, 10 µM came to 4.8. For the same compound, the inhibition at 1 h, 10 µM on CYP2D6 came out at 41%. Also, in data set [3], the Pe is 207.

For the compound `CC(=O)NC[C@@H]1CNCCO[C@H]1c1ccc(Cl)c(Cl)c1.Cl`, at MDR1 (ABCB1, P-gp), the efflux ratio at 2 h, 10 µM amounted to 5. Also, the inhibition at 1 h, 10 µM at CYP2D6 amounted to 26%. Also, the Pe in data set [3] is recorded as 146. The pIC50 in data set [4] is less than 6.00.

Values taken from ChEMBL document CHEMBL4715727, “Design, synthesis, and biological evaluation of a novel series of peripheral-selective noradrenaline reuptake inhibitors-Part 2” (Bioorg Med Chem, 2016).
